The values below come from patent US10960015B2, “Effervescent formulation based on pyridoxal-5-phosphate” (Assistance Publique-Hopitaux De Paris, priority 2015, dated 2021).

What all share (format): physicochemical
The nature of series [1]: Laser diffraction granulometry (dry mode, Mastersizer S). As for the experimental part:
Laser Diffraction Granulometry (European Pharmacopeia (PE), Current Edition, 2.9.31)
Analysis of the granulometric distribution was performed in dry mode on a Mastersizer S laser granulometer (Malvern®). The detection range of this instrument in dry mode is from 0.05 μm to 900 μm. This study was performed on 20 g of active principle, at a pressure of 1, 2 and 3 bar. Each test was performed 3 times for each pressure.

Series [2] can be described thus: Funnel flow (Erweka flow tester, PE 2.9.16). The conditions noted are these: standardized funnel; 100 g raw materials, 20 g mixtures. As for the experimental part:
(§1) A. Funnel Flow and Angle of Repose (PE 2.9.16-2.9.36)
(§2) The tests were performed on an Erweka® flow tester on all of the raw materials and mixtures tested using a standardized funnel. The tests performed on the raw materials were carried out on 100 g of powder, and on 20 g for mixtures (batches A, F, G, H, I, J).

The nature of series [3]: Angle of repose (PE 2.9.36). Conditions: mixing time 5 minutes. Here is the method: as §1, §2
Determination of the angle of repose was performed on the powders alone and on the mixtures, as defined in the European Pharmacopeia. Different mixing times of 5, 10 and 30 minutes were tested on the mixtures (batches of F to J) to determine the influence of the mixing time on the flow (Table IV).

A short description of series [4]: Tapped density (volumenometer, PE 2.9.34). Conditions: after tamping; for Hausner ratio: criterion <1.20; for Carr index: criterion <20%. As for the experimental part: B. Tapped Density (PE 2.9.34)
The tests were performed on a volumenometer (Erweka® GmbH SVM12). The Carr and Hausner indices can be determined by this test. The tests performed on the raw materials were carried out on 100 g of powder, and on 20 g for mixtures (batches A, F, G, H, I, J).

In series [1] (dry mode), `Cc1ncc(COP(=O)(O)O)c(C=O)c1O` [Batch A, Pyridoxal-5-phosphate] gave a d50 of 11 μm. Also, in series [1] (dry mode, 1, 2 and 3 bar), the particle size result is recorded as “below 100 μm”. Also, in series [2], the Flow result was “no flow”.
As to Isomalt [Batch C], the Flow in series [2] was 23.8 s. In series [3], the Angle of repose is reported as 45° and the “Angle of repose, Interpretation” value is listed as “Passable”. In series [4], the “Carr index, interpretation” value is recorded as “Good”; the “Compactibility (V10-V500)” value is on record as 8 mL; the “Hausner ratio, interpretation” value is reported as “Good”; the Hausner ratio worked out at 1.13. The same compound had a Carr index in series [4] of 11.25%.
Take `OC[C@@H](O)[C@@H](O)[C@H](O)[C@@H](O)CO` [Batch E, Sorbitol]: the Flow in series [2] was 9.6 s. Also, in series [3], the Angle of repose is on record as 43.6° and the “Angle of repose, Interpretation” value is “Passable”. Further, in series [4], the “Carr index, interpretation” value was “Excellent”; the “Compactibility (V10-V500)” value was determined as 9 mL; the “Hausner ratio, interpretation” value is recorded as “Excellent”; the Hausner ratio was 1.10. For the same compound, in series [4], the Carr index is recorded as 9.05%.
Regarding `OC[C@@H](O)[C@@H](O)[C@H](O)[C@H](O)CO` [Batch Q, Mannitol], the Flow in series [2] is recorded as 27.1 s. In addition, in series [3], the Angle of repose is reported as 38.3° and the “Angle of repose, Interpretation” value is “Quite”. Further, in series [4], the “Carr index, interpretation” value is reported as “Excellent”; the “Compactibility (V10-V500)” value is reported as 0 mL; the “Hausner ratio, interpretation” value is reported as “Excellent”; the Hausner ratio is reported as 1.02. Moreover, in series [4], the Carr index was found to be 7.48%.
Regarding `OC[C@H]1O[C@@](CO)(O[C@H]2O[C@H](CO)[C@@H](O)[C@H](O)[C@H]2O)[C@@H](O)[C@@H]1O` [Batch D, Sucrose], the Flow in series [2] came out at 22 s. In series [3], the Angle of repose came to 40.5° and the “Angle of repose, Interpretation” value is “Quite”. For the same compound, in series [4], the “Carr index, interpretation” value was “Excellent”; the “Compactibility (V10-V500)” value is given as 3 mL; the “Hausner ratio, interpretation” value was “Excellent”; the Hausner ratio is 1.10. In series [4], this compound returned a Carr index of 8.70%.
